Measurements published in US20260209219A1, “SUBSTITUTED TETRAHYDROPYRROLO-PYRIDINONE COMPOUNDS AND THEIR USE IN TREATING MEDICAL CONDITIONS” (Karuna Therapeutics, Inc., priority 2022, published 2026).

Molecular target: T1, human M4 receptor (Homo sapiens, UniProt P08173)
T1 construct: expressed in transfected cells; host or cells: CHO-K1 cells (membrane preparation)
T1 sequence (P08173 1-479): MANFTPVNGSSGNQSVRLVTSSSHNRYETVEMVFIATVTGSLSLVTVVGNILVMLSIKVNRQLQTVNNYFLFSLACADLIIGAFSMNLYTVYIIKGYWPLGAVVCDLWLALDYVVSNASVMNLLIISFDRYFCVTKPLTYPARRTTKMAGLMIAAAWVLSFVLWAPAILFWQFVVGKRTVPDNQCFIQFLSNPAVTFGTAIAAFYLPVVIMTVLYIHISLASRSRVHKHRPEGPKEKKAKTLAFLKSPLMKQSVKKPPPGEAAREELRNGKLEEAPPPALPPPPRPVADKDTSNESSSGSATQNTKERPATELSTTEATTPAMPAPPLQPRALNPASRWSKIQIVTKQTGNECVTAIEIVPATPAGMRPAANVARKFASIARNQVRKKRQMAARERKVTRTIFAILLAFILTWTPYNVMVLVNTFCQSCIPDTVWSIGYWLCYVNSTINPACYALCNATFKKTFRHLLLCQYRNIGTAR
Experiment: M4 GTPγS PAM assay
Assay type: biochemical
Conditions: membranes of CHO-K1 cells stably expressing human M4; EC20 acetylcholine 40 nM
Description: The M4 GTPγS PAM method was used. Membranes were prepared for GTPgS binding assays from CHO-K1 cells stably expressing human M4 receptor. Briefly, cells were grown in 5-layer cell culture flasks. Cells were washed with 50 mL of PBS and then dissociated with 0.05% trypsin. Dissociated cells were then collected by centrifugation at 650×g for 8 minutes at 4° C. Pellets were washed again in PBS by centrifugation and resuspended in 30 mL of 20 mM HEPES, 10 mM EDTA, pH 7.4. After sitting on ice for 30 min, membranes were collected by centrifugation at 50000×g for 15′ at 4° C., resuspended in 30 mL of 20 mM HEPES, 0.1 mM EDTA, pH 7.4 and collected again by centrifugation. Pellets were then washed twice by centrifugation in 30 mL of 20 mM HEPES, pH 7.4, and stored at −80° C. until the day of the assay. On the day of the assay, pellets were thawed on ice and resuspended in 1 mL of 20 mM HEPES, pH 7.4, 10 mM MgCl2, 100 mM NaCl using dounce homogenization. Membrane protein concentration is determined by BCA protein assay (Promega, Madison, WI) according to Promega guidelines.
On the day of the assay, serial dilutions of test PAM compounds were brought up in assay buffer (20 mM HEPES, 10 mM MgCl2, 100 mM NaCl) at 4× final assay concentration. […] of membrane homogenates (containing […] of membrane protein) were prepared in assay buffer supplemented with GDP at 4× final assay concentration (final assay concentration of GDP is 5 μM for M2 and 0.1 μM for M4) and dispensed into 96 well polypropylene, U-bottom Greiner plates. […] of vehicle or test PAM compound at 4× of final assay concentration diluted in the assay buffer were added to membrane and plates are incubated for 10-15 minutes at room temperature with gentle shaking. Then, […] of EC20 acetylcholine in assay buffer at 4× final assay concentration was added to assay plates (EC20 final assay concentrations was 40 nM for human M4).
Plates were then incubated, with shaking, for an additional 10-15 minutes. 25 mL of 0.4 nM ^35S-GTP (Perkin Elmer, Waltham, MA) in assay buffer was added to assay mixtures. The binding reaction is left on the shaker for 1 hour at room temperature. Membranes in assay reactions were then transferred to GF/C filter plates (Unifilter, Perkin Elmer) and washed three times using a FilterMate Harvester (Perkin Elmer) with cold assay buffer containing no GDP. Filter plates were then dried at 40° C. overnight followed by the addition of […] of Beta Plate Scintillation liquid. Plates are top and bottom sealed before being read on TopCount scintillation counter (Perkin Elmer, Waltham, MA).

Row | SMILES | EC50 [nM]
1 | Cc1cc(=O)n(C)c2c1CN(C(=O)CC1CC1c1ccc(C(F)(F)F)cc1)C2 (single isomer, unassigned) [Compound I-7] | < 100
2 | Cc1c2c(n(C)c(=O)c1F)CN(C(=O)CC1CC1c1ccc(C(F)(F)F)cc1)C2 (centres unmarked) [Compound I-26] | < 100
